Source: patent US20240425517A1, “NOVEL COMPOUND FOR DEGRADATION OF TARGET PROTEIN OR POLYPEPTIDE BY POLYUBIQUITINATION” (PRAZER THERAPEUTICS INC., priority 2021, published 2024)

What follows are molecules tested against T1, Aurora A proteins (Homo sapiens, UniProt O14965) (assay: Degradation of Aurora A protein in MM.1S cell lines (Western blot densitometry)). Conditions: MM1.S, 24 h, read-out: Aurora A degrading capacity (%).
T1 construct: endogenous in cells; host or cells: MM.1S
T1 sequence (O14965 1-403): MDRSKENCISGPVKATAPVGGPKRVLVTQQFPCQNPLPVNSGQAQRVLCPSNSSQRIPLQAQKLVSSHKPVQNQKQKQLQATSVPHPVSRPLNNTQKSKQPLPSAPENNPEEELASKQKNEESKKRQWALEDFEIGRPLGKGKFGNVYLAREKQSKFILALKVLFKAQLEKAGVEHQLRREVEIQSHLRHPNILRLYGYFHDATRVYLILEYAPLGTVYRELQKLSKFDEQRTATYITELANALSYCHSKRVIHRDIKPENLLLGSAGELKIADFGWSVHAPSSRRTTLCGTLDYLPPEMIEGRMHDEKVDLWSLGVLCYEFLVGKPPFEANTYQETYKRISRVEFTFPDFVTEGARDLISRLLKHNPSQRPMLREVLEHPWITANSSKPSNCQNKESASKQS
Assay type: cell-based
Method: Specifically, the MM.1S cells were cultured in RPMI-1640 medium containing 10% fetal bovine serum (FBS), 1% penicillin, and streptomycin (100 U/mL), transferred to a 6-well plate, and after 24 hours, the Aurora A degraders were diluted in the RPMI culture medium and cells were treated with 5 μM concentration thereof. After treatment, the cells were incubated in a CO2 incubator for 24 hours. […] After cell culture was completed according to the experimental conditions, the cells were collected and centrifuged at 1,800 rpm for 3 minutes. The cells in the precipitate were lysed with RIPA (25 mM Tris-HCl pH 7.6, 150 mM NaCl, 1% NP-40, 1% sodium deoxycholate, 0.1% SDS, 1× Protease Inhibitor Cocktail), 5× sample buffer was added, and then heated at 100° C. for 15 minutes. The prepared sample was electrophoresed with sodium dodecyl sulfate poly acrylamide gel electrophoresis (SDS-PAGE), and then the proteins in the gel were transferred to a PVDF membrane using Trans-Blot Turbo. The membrane was treated with a 5% bovine serum albumin (BSA) solution and blocked at room temperature for 2 hours, and then Aurora A and R-actin antibodies were diluted in the 5% BSA solution to react with the membrane at 4° C. overnight. After washed with PBST (0.5% Tween20) 5 times, horse radish peroxidase (HRP)-conjugated secondary antibodies were diluted in PBST to react at room temperature for 2 hours, and then washed again with a PBST solution 5 times. After enzyme-substrate reaction was carried out using a HRP substrate, a signal was measured with chemi-doc equipment, and the densitometry of a band corresponding to the Aurora A protein detected in the Preparation Example Compounds was quantitatively analyzed. The case when the degrading capacity of each Aurora A degrader was reduced by less than 40% is indicated as +, the case when the degrading capacity was reduced by 40% to 70% (exclusive of 70) is indicated as ++, the case when the degrading capacity was reduced by 70% or more is indicated as +++ in Tables 20 to 23 below.

Structure (SMILES) | Aurora A degradation (%) at 5 µM [%]
COc1cc(Nc2ncc3c(n2)-c2ccc(Cl)cc2C(c2c(F)cccc2OC)=NC3)ccc1C(=O)Nc1ccc(C#CCN)cc1 [1-1″, N-(4-(3-aminoprop-1-yn-1-yl)phenyl)-4-((9-chloro-7-(2-fluoro-6-methoxyphenyl)-5H-benzo[c]pyrimido[4,5-e]azepin-2-yl)amino)-2-methoxybenzamide trifluoroacetic acid] | > 70
COc1cc(Nc2ncc3c(n2)-c2ccc(Cl)cc2C(c2c(F)cccc2OC)=NC3)ccc1C(=O)Nc1cccc(C#CCN)c1 [1-3″, N-(3-(3-aminoprop-1-yn-1-yl)phenyl)-4-((9-chloro-7-(2-fluoro-6-methoxyphenyl)-5H-benzo[c]pyrimido[4,5-e]azepin-2-yl)amino)-2-methoxybenzamide trifluoroacetic acid] | > 70
COC(=O)c1ccc(NC(=O)c2ccc(Nc3ncc4c(n3)-c3ccc(Cl)cc3C(c3c(F)cccc3OC)=NC4)cc2OC)cc1C#CCN [3-25″, methyl 2-(3-aminoprop-1-yn-1-yl)-4-(4-((9-chloro-7-(2-fluoro-6-methoxyphenyl)-5H-benzo[c]pyrimido[4,5-e]azepin-2-yl)amino)-2-methoxybenzamido)benzoate trifluoroacetic acid] | < 40
COc1cc(Nc2ncc3c(n2)-c2ccc(Cl)cc2C(c2c(F)cccc2OC)=NC3)ccc1C(=O)Nc1ccc(C#CC(N)CO)cc1 (stereo not drawn) [3-49″, N-(4-(3-amino-4-hydroxybut-1-yn-1-yl)phenyl)-4-((9-chloro-7-(2-fluoro-6-methoxyphenyl)-5H-benzo[c]pyrimido[4,5-e]azepin-2-yl)amino)-2-methoxybenzamide trifluoroacetic acid] | > 70
COc1cc(Nc2ncc3c(n2)-c2ccc(Cl)cc2C(c2c(F)cccc2OC)=NC3)ccc1C(=O)NCC#Cc1ccc(C#CCN)o1 [4-1″, N-(3-(5-(3-aminoprop-1-yn-1-yl)furan-2-yl)prop-2-yn-1-yl)-4-((9-chloro-7-(2-fluoro-6-methoxyphenyl)-5H-benzo[c]pyrimido[4,5-e]azepin-2-yl)amino)-2-methoxybenzamide trifluoroacetic acid] | > 70
COc1cc(Nc2ncc3c(n2)-c2ccc(Cl)cc2C(c2c(F)cccc2OC)=NC3)ccc1C(=O)NCCCCCC(=O)Nc1ccc(C#CCN)cc1 [4-165″, N-(6-((4-(3-aminoprop-1-yn-1-yl)phenyl)amino)-6-oxohexyl)-4-((9-chloro-7-(2-fluoro-6-methoxyphenyl)-5H-benzo[c]pyrimido[4,5-e]azepin-2-yl)amino)-2-methoxybenzamide trifluoroacetic acid] | > 70

These molecules were tested against T2, BRD4 proteins (Homo sapiens, UniProt O60885) (assay: Degradation of BRD4 protein in MM.1S cell lines (Western blot densitometry)). Conditions: MM.1S cells, 10 μM, 24 hours.
T2 construct: endogenous in cells; host or cells: MM.1S
Assay type: cell-based
Summary of the method: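 MM.1S cells in RPMI-1640 with 10% FBS were treated with each degrader at 10 μM for 24 h. RIPA lysates were analysed by SDS-PAGE/Western blot with β-actin as reference, and BRD4 band densitometry was scored as reduction <40% (+), 40-<70% (++) or ≥70% (+++).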

Structure (SMILES) | BRD4 degrading capacity (%)
COC(=O)c1ccc(C(=O)N(C)C2CCN(C(=O)C[C@@H]3N=C(c4ccc(Cl)cc4)c4c(sc(C)c4C)-n4c(C)nnc43)CC2)cc1C#CCN [5-153′, methyl (S)-2-(3-aminoprop-1-yn-1-yl)-4-((1-(2-(4-(4-chlorophenyl)-2,3,9-trimethyl-6H-thieno[3,2-f][1,2,4]triazolo[4,3-a][1,4]diazepin-6-yl)acetyl)piperidin-4-yl)(methyl)carbamoyl)benzoate trifluoroacetic acid] | +++ (the degrading capacity was reduced by 70% or more)
COC(=O)c1ccc(NC(=O)C2CCN(C(=O)C[C@@H]3N=C(c4ccc(Cl)cc4)c4c(sc(C)c4C)-n4c(C)nnc43)CC2)cc1C#CCNS(N)(=O)=O [5-154′, methyl (S)-4-(1-(2-(4-(4-chlorophenyl)-2,3,9-trimethyl-6H-thieno[3,2-f][1,2,4]triazolo[4,3-a][1,4]diazepin-6-yl)acetyl)piperidine-4-carboxamido)-2-(3-(sulfamoylamino)prop-1-yn-1-yl)benzoate trifluoroacetic acid] | +++ (the degrading capacity was reduced by 70% or more)
COC(=O)c1ccc(NC(=O)C2CCN(C(=O)C[C@@H]3N=C(c4ccc(Cl)cc4)c4c(sc(C)c4C)-n4c(C)nnc43)CC2)cc1C#CC1(N)CC1 [5-155′, methyl (S)-2-((1-aminocyclopropyl)ethynyl)-4-(1-(2-(4-(4-chlorophenyl)-2,3,9-trimethyl-6H-thieno[3,2-f][1,2,4]triazolo[4,3-a][1,4]diazepin-6-yl)acetyl)piperidine-4-carboxamido)benzoate trifluoroacetic acid] | ++ (the degrading capacity was reduced by 40% to 70% (exclusive of 70))
COC(=O)c1ccc(NC(=O)C2CCN(C(=O)C[C@@H]3N=C(c4ccc(Cl)cc4)c4c(sc(C)c4C)-n4c(C)nnc43)CC2)cc1C#CCNC(=O)OC(C)OC(=O)C(C)C (stereo partly drawn) [5-157′, methyl 4-(1-(2-((S)-4-(4-chlorophenyl)-2,3,9-trimethyl-6H-thieno[3,2-f][1,2,4]triazolo[4,3-a][1,4]diazepin-6-yl)acetyl)piperidine-4-carboxamido)-2-(3-(((1-(isobutyryloxy)ethoxy)carbonyl)amino)prop-1-yn-1-yl)benzoate] | +++ (the degrading capacity was reduced by 70% or more)
COC(=O)c1ccc(NC(=O)C2CCN(C(=O)C[C@@H]3N=C(c4ccc(Cl)cc4)c4c(sc(C)c4C)-n4c(C)nnc43)CC2)cc1C#CCOS(N)(=O)=O [5-158′, methyl (S)-4-(1-(2-(4-(4-chlorophenyl)-2,3,9-trimethyl-6H-thieno[3,2-f][1,2,4]triazolo[4,3-a][1,4]diazepin-6-yl)acetyl)piperidine-4-carboxamido)-2-(3-(sulfamoyloxy)prop-1-yn-1-yl)benzoate trifluoroacetic acid] | +++ (the degrading capacity was reduced by 70% or more)
COC(=O)c1ccc(N2CC3(CN(C(=O)C[C@@H]4N=C(c5ccc(Cl)cc5)c5c(sc(C)c5C)-n5c(C)nnc54)C3)C2)cc1C#CCNC(=O)OC(C)OC(=O)C(C)C (stereo partly drawn) [5-162′, methyl 4-(6-(2-((S)-4-(4-chlorophenyl)-2,3,9-trimethyl-6H-thieno[3,2-f][1,2,4]triazolo[4,3-a][1,4]diazepin-6-yl)acetyl)-2,6-diazaspiro[3.3]heptan-2-yl)-2-(3-(((1-(isobutyryloxy)ethoxy)carbonyl)amino)prop-1-yn-1-yl)benzoate] | +++ (the degrading capacity was reduced by 70% or more)
COC(=O)c1ccc(N2CCN(CCCNC(=O)C[C@@H]3N=C(c4ccc(Cl)cc4)c4c(sc(C)c4C)-n4c(C)nnc43)CC2)cc1C#CCN.Cl [5-164′, methyl (S)-2-(3-aminoprop-1-yn-1-yl)-4-(4-(3-(2-(4-(4-chlorophenyl)-2,3,9-trimethyl-6H-thieno[3,2-f][1,2,4]triazolo[4,3-a][1,4]diazepin-6-yl)acetamido)propyl)piperazin-1-yl)benzoate hydrochloride] | +++ (the degrading capacity was reduced by 70% or more)
COC(=O)c1cc(N2CCN(CCCNC(=O)C[C@@H]3N=C(c4ccc(Cl)cc4)c4c(sc(C)c4C)-n4c(C)nnc43)CC2)ccc1C#CCN.Cl [5-165′, methyl (S)-2-(3-aminoprop-1-yn-1-yl)-5-(4-(3-(2-(4-(4-chlorophenyl)-2,3,9-trimethyl-6H-thieno[3,2-f][1,2,4]triazolo[4,3-a][1,4]diazepin-6-yl)acetamido)propyl)piperazin-1-yl)benzoate hydrochloride] | +++ (the degrading capacity was reduced by 70% or more)
COC(=O)c1ccc(N2CC3(CCN(C(=O)C[C@@H]4N=C(c5ccc(Cl)cc5)c5c(sc(C)c5C)-n5c(C)nnc54)CC3)C2)cc1C#CCN.Cl [5-168′, methyl (S)-2-(3-aminoprop-1-yn-1-yl)-4-(7-(2-(4-(4-chlorophenyl)-2,3,9-trimethyl-6H-thieno[3,2-f][1,2,4]triazolo[4,3-a][1,4]diazepin-6-yl)acetyl)-2,7-diazaspiro[3.5]nonan-2-yl)benzoate hydrochloride] | +++ (the degrading capacity was reduced by 70% or more)
